Measured values as given in US10695296B2, “Formulations, methods, kit, and dosage forms for improved stability of an active pharmaceutical ingredient” (Asana BioSciences, LLC, priority 2017, dated 2020).
Read-outs that look alike come from different tables or passages of the source.

Assay: PK characteristics in humans (plasma, LC/MS/MS)
Format: in vivo, human
Conditions: for Cmax / half-life / Tmax / AUC(0-t): human, plasma; for Cmax: read-out: Cmax; for Tmax: read-out: Tmax
Experimental: A pharmaceutical formulation of the disclosure comprising the active ingredient N-(3-(2-(6-amino-4-(trifluoromethyl)pyridin-3-yl)-4-morpholinopyrido[3,2-d]pyrimidin-6-yl)-2-fluorophenyl)-3-fluoropropane-1-sulfonamide was evaluated for safety/tolerability and preliminary efficacy in eligible human subjects with advanced solid tumors, and the pharmacokinetic (PK) profile of the active ingredient was investigated for each subject. Eligibility criteria for inclusion in this study included:
Fifteen eligible patients were enrolled in total daily dose levels ranging from 10-800 mg per day of the active ingredient, provided as 10-mg, 20-mg, 80-mg and 120-mg tablets for oral administration. Dose escalation is ongoing. All study medication supplies were provided by Asana BioSciences, LLC (Bridgewater, N.J.). The tablets were administered orally every 12-24 hours on an empty stomach (either 1 hour before or 2 hours after a meal or snack) with approximately 240 mL of water. On study days in which there was a single plasma PK sample taken, the subject was instructed to fast for at least 2 hours prior to collection of the PK sample. On study days with multiple plasma PK samples taken, the subject was instructed to fast overnight (at least 8 hours prior to study drug administration) and remain fasting for 2 hours after study drug administration. The date and time of the dose(s) taken prior to or on PK sampling days were collected by the study site or catalogued via a diary card provided to the subject.
An ultra performance liquid chromatographic method was used for the determination of the active ingredient in human EDTA K2 plasma. This method was validated over an analytical range of 0.5 to 500 ng/mL. Calibration standards (CS) and quality control (QC) samples at three or four levels of concentrations were prepared fresh from the appropriate working solutions which were stored at −20° C. The human EDTA K2 plasma used for the preparation of CS and QC samples was obtained from Bioreclamation (Westbury, Pa., USA) and analyzed to determine possible interference with the analyte or the internal standard, and no significant interference was observed. The following parameters were used to determine analyte levels in the plasma samples: […]

[1] = oral, 40 mg, Day 15, 40 mg, n=2, mean
[2] = oral, 40 mg, steady state, 40 QD mg, n=2, mean, cancer patients
[3] = oral, 80 mg, Day 1, 80 mg, n=2, mean
[4] = oral, 80 mg, Day 15, 80 mg, n=2, mean
[5] = oral, 80 mg, steady state, 80 QD mg, n=2, mean, cancer patients
[6] = oral, 240 mg, Day 1, 240 mg, n=2, mean
[7] = oral, 240 mg, Day 15, 240 mg, n=2, mean
[8] = oral, 240 mg, steady state, 240 QD mg, n=2, mean, cancer patients
[9] = oral, 400 mg, Day 1, 400 bid mg, individual subjects
[10] = oral, 400 mg, Day 1, 400 bid mg, mean
[11] = oral, 400 mg, Day 15, 400 QD mg, n=2, mean
[12] = oral, 400 mg, Day 15, 400 bid mg, n=1
[13] = oral, 400 mg, steady state, 400 BID mg, n=1, cancer patients
[14] = oral, 400 mg, steady state, 400 QD mg, n=2, mean, cancer patients

Nc1cc(C(F)(F)F)c(-c2nc(N3CCOCC3)c3nc(-c4cccc(NS(=O)(=O)CCCF)c4F)ccc3n2)cn1 [CMPD A, N-(3-(2-(6-amino-4-(trifluoromethyl)pyridin-3-yl)-4-morpholinopyrido[3,2-d]pyrimidin-6-yl)-2-fluorophenyl)-3-fluoropropane-1-sulfonamide]
Cmax [1]: 348 ng/mL | half-life (oral, 40 mg, Day 15, 40 mg, n=2, mean, read-out: T1/2 (converted)): 35.1 h | Tmax [1]: 4 h | AUC(0-t) (oral, 40 mg, steady state, 40 QD mg, n=2, mean, cancer patients, read-out: AUC0-24h): 5890 ng·h/mL | Cmax [2]: 348 ng/mL | Tmax [2]: 4 h | half-life (oral, 80 mg, Day 1, 80 mg, individual subject (other NC), read-out: T1/2 (converted)): 22.4 h | Cmax (oral, 80 mg, Day 1, 80 mg, individual subjects): 470 ng/mL | AUC(0-t) (oral, 80 mg, Day 1, 80 mg, n=2, mean, read-out: AUC0-24): 6050 ng·h/mL | Cmax [3]: 384 ng/mL | Tmax [3]: 14 h | half-life (oral, 80 mg, Day 15, 80 mg, individual subject (other NC), read-out: T1/2 (converted)): 48.7 h | AUC(0-t) (oral, 80 mg, Day 15, 80 mg, individual subjects, read-out: AUC0-24): 19000 ng·h/mL | Cmax (oral, 80 mg, Day 15, 80 mg, individual subjects): 931 ng/mL | AUC(0-t) (oral, 80 mg, Day 15, 80 mg, n=2, mean, read-out: AUC0-24): 20100 ng·h/mL | Cmax [4]: 1060 ng/mL | Tmax [4]: 14 h | AUC(0-t) (oral, 80 mg, steady state, 80 QD mg, n=2, mean, cancer patients, read-out: AUC0-24h): 20100 ng·h/mL | Cmax [5]: 1060 ng/mL | Tmax [5]: 14 h | AUC(0-t) (oral, 120 mg, Day 1, 120 mg, n=3, mean, read-out: AUC0-24): 6660 ng·h/mL | Cmax (oral, 120 mg, Day 1, 120 mg, n=3, mean): 509 ng/mL | half-life (oral, 120 mg, Day 1, 120 mg, n=3, mean, read-out: T1/2 (converted)): 24.9 h | Tmax (oral, 120 mg, Day 1, 120 mg, n=3): 4 h | AUC(0-t) (oral, 120 mg, Day 15, 120 mg, n=3, mean, read-out: AUC0-24): 10100 ng·h/mL | Cmax (oral, 120 mg, Day 15, 120 mg, n=3, mean): 728 ng/mL | half-life (oral, 120 mg, Day 15, 120 mg, n=3, mean, read-out: T1/2 (converted)): 24.1 h | Tmax (oral, 120 mg, Day 15, 120 mg, n=3): 4 h | Tmax (oral, 120 mg, steady state, 120 QD mg, n=3, cancer patients): 4 h | AUC(0-t) (oral, 120 mg, steady state, 120 QD mg, n=3, mean, cancer patients, read-out: AUC0-24h): 10100 ng·h/mL | Cmax (oral, 120 mg, steady state, 120 QD mg, n=3, mean, cancer patients): 728 ng/mL | AUC(0-t) (oral, 240 mg, Day 1, 240 mg, n=2, mean, read-out: AUC0-24): 6930 ng·h/mL | Cmax [6]: 520 ng/mL | half-life (oral, 240 mg, Day 1, 240 mg, n=2, mean, read-out: T1/2 (converted)): 17.5 h | Tmax [6]: 5 h | Tmax (oral, 240 mg, Day 15, 240 mg, individual subjects): 2 h | AUC(0-t) (oral, 240 mg, Day 15, 240 mg, n=2, mean, read-out: AUC0-24): 14900 ng·h/mL | Cmax [7]: 954 ng/mL | half-life (oral, 240 mg, Day 15, 240 mg, n=2, mean, read-out: T1/2 (converted)): 19.7 h | Tmax [7]: 2 h | AUC(0-t) (oral, 240 mg, steady state, 240 QD mg, n=2, mean, cancer patients, read-out: AUC0-24h): 14900 ng·h/mL | Cmax [8]: 954 ng/mL | Tmax [8]: 2 h | half-life (oral, 400 mg, Day 1, 400 QD mg, individual subjects, read-out: T1/2 (converted)): 15.2 h | AUC(0-t) (oral, 400 mg, Day 1, 400 QD mg, n=2, mean, read-out: AUC0-24): 15000 ng·h/mL | Cmax (oral, 400 mg, Day 1, 400 QD mg, n=2, mean): 1070 ng/mL | half-life (oral, 400 mg, Day 1, 400 QD mg, n=2, mean, read-out: T1/2 (converted)): 15.4 h | Tmax (oral, 400 mg, Day 1, 400 QD mg, n=2): 2 h | AUC(0-t) (oral, 400 mg, Day 1, 400 bid mg, individual subjects, read-out: AUC0-24): 32100 ng·h/mL | Cmax [9]: 2330 ng/mL | half-life (oral, 400 mg, Day 1, 400 bid mg, individual subjects, read-out: T1/2 (converted)): 22.5 h | Tmax [9]: 8 h | AUC(0-t) (oral, 400 mg, Day 1, 400 bid mg, mean, read-out: AUC0-24): 26300 ng·h/mL | Cmax [10]: 1880 ng/mL | half-life (oral, 400 mg, Day 1, 400 bid mg, mean, read-out: T1/2 (converted)): 18.6 h | Tmax [10]: 6 h | AUC(0-t) (oral, 400 mg, Day 15, 400 QD mg, individual subjects, read-out: AUC0-24): 25500 ng·h/mL | Cmax (oral, 400 mg, Day 15, 400 QD mg, individual subjects): 2770 ng/mL | half-life (oral, 400 mg, Day 15, 400 QD mg, individual subjects, read-out: T1/2 (converted)): 10.1 h | AUC(0-t) (oral, 400 mg, Day 15, 400 QD mg, n=2, mean, read-out: AUC0-24): 33400 ng·h/mL | Cmax [11]: 2850 ng/mL | half-life (oral, 400 mg, Day 15, 400 QD mg, n=2, mean, read-out: T1/2 (converted)): 10.9 h | Tmax [11]: 4.5 h | AUC(0-t) (oral, 400 mg, Day 15, 400 bid mg, n=1, read-out: AUC0-24): 110000 ng·h/mL | Cmax [12]: 5900 ng/mL | Tmax [12]: 2 h | AUC(0-t) (oral, 400 mg, steady state, 400 BID mg, n=1, cancer patients, read-out: AUC0-24h): 110000 ng·h/mL | Cmax [13]: 5990 ng/mL | Tmax [13]: 2 h | AUC(0-t) (oral, 400 mg, steady state, 400 QD mg, n=2, mean, cancer patients, read-out: AUC0-24h): 33400 ng·h/mL | Cmax [14]: 2850 ng/mL | Tmax [14]: 4.5 h | half-life (po, human subjects, oral tablets, read-out: Effective t½ (converted)): ~24 h | half-life (po, human subjects, oral tablets, read-out: t1/2 (rate of elimination)): 10 to 25 h | Cmin (steady state, 10 QD mg, n=1, cancer patients): 16.0 ng/mL | Cmin (steady state, 20 QD mg, n=1, cancer patients): 76.4 ng/mL | Cmin (steady state, 40 QD mg, n=2, mean, cancer patients): 167 ng/mL | Cmin (steady state, 80 QD mg, n=2, mean, cancer patients): 614 ng/mL | Cmin (steady state, 120 QD mg, n=3, mean, cancer patients): 239 ng/mL | Cmin (steady state, 240 QD mg, n=2, mean, cancer patients): 463 ng/mL | Cmin (steady state, 400 BID mg, n=1, cancer patients): 3718 ng/mL | Cmin (steady state, 400 QD mg, n=2, mean, cancer patients): 589 ng/mL
